Measured values taken from patent publication US12276654B2, “Chemical probe-dependent evaluation of protein activity and uses thereof” (The University of Chicago, priority 2017, dated 2025).

How the values were obtained:
MGLL = target: T1, MGLL (Mus musculus, UniProt O35678); assay: sADPL in vivo target engagement in mPBMCs after oral gavage, off-target MGLL; details: mice, 3 and 80 mg/kg
T1 construct: Then the mPBMCs were acquired from the mouse blood and subjected to family wide probe treatment; from tissue; host or cells: mouse blood PBMCs (mPBMCs)
T1 sequence (O35678 1-303): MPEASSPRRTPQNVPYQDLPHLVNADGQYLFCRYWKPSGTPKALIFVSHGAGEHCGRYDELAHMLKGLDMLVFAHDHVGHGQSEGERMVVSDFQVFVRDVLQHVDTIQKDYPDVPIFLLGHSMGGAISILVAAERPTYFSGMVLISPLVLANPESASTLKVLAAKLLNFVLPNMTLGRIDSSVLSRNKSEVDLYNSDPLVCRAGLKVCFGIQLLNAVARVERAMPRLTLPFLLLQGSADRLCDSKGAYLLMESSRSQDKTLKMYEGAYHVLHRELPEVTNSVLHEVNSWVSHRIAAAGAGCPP
Source text: FIG. 25. In vivo Target Engagement. The mice were administrated with vehicle (PEG300) or NCEH1 inhibitor JW480 by oral gavage. Then the mPBMCs were acquired from the mouse blood and subjected to family wide probe treatment to profile the in vivo target engagement.
Following the in vitro study, in vivo target engagement was planned. In this experiment, the inventors orally gavaged the mice with vehicle or inhibitors, then collected the mPBMCs for probe treatment and sADPL measurement. Again, first the activity of NCEH1 was tested in mice PBMCs, and good activity was found. The delta Ct is over 7 cycles, which is over 100 fold change.

NCEH1 = target: T2, NCEH1 (Homo sapiens, UniProt Q6PIU2); assay: sADPL target engagement in patient-derived hPBMCs; format: cell-based; design: The human peripheral blood mononuclear cells (hPBMCs) were extracted from patient-derived blood samples; endogenous in cells; host or cells: primary human PBMCs from patient blood; details: hPBMCs from patient-derived blood; inhibitor prior to family-wide probe
T2 sequence (Q6PIU2 1-408): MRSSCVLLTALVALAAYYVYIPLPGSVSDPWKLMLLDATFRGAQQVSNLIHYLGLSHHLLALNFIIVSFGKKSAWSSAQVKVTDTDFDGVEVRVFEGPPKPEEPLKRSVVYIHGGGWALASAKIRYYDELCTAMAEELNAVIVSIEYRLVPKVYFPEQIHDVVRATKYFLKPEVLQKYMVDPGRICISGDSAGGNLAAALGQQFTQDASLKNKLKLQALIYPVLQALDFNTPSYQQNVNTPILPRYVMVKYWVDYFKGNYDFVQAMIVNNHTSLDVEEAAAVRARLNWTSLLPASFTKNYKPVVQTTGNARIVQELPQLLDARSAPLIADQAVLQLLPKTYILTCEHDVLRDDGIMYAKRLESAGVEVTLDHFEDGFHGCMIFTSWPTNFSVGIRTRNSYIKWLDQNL
Description: FIG. 24. Target Engagement in Patient-derived PBMCs. The human peripheral blood mononuclear cells (hPBMCs) were extracted from patient-derived blood samples. Likewise, hPBMCs were treated with DMSO as the control, with inhibitor prior to family wide probe to pre-block the active site, or with family-wide probe directly. Then sADPL workflow was applied to read out the CT difference.

CC(C)c1ccccc1OC(=O)NCCc1ccc2ccccc2c1 [JW480]
in vivo target engagement of off-target MGLL in mPBMCs (MGLL): no target engagements were observed | activity in inhibitor competition group by sADPL in hPBMCs (NCEH1): bring the activities down to the levels of DMSO controls
